From PMC5706701, “Development of a homogenous high-throughput assay for inositol hexakisphosphate kinase 1 activity” (PLoS ONE, 2017)
Structures can show the parent of a compound that is named as a salt.

Target: T1, Human IP6K1 (Homo sapiens, UniProt Q92551)
T1 construct: GST (N, cleaved yes); made in house; host or cells: C43 E. coli, pGEX-6P-2
Assay: IP6K1 high-throughput screen of the Sigma LOPAC (ADP-Glo Max, single point);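 further: final compound concentration 10µM in 5% DMSO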
Format: biochemical

[1] = LOPAC single-point screen, ADP-Glo Max raw signal per well
[2] = LOPAC single-point screen, Z-score against plate average and StDev
[3] = LOPAC single-point screen, Z-score from raw signal with plate average and StDev
[4] = Sigma LOPAC single-point screen, ADP-Glo Max raw signal per well
[5] = Sigma LOPAC single-point screen, Z-score from plate average and StDev
[6] = LOPAC single-point screen, ADP-Glo Max luminescence raw signal per well
[7] = LOPAC single-point screen, Z-score relative to plate average and StDev
[8] = LOPAC single-point screen, Z-score from plate average and StDev

T1 sequence (Q92551 whole entry): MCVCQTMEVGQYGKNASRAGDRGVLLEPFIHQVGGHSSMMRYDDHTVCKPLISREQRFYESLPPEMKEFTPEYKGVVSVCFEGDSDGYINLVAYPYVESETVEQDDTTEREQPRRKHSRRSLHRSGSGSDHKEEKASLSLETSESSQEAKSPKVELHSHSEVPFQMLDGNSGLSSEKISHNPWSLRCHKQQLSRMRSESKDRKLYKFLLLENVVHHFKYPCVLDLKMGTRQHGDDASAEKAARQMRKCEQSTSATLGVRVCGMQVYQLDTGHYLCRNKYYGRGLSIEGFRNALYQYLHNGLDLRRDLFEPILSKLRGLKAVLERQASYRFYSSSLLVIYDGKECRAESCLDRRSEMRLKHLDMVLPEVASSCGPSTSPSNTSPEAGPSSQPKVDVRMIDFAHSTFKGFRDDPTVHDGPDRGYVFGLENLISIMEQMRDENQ

Cc1[nH]c2ccc(O)cc2c1CCN.O=C(O)/C=C\C(=O)O [2-Methyl-5-hydroxytryptamine maleate]
Raw Signal [1]: 56336 | Z-score [2]: 0.3264

CC1=C(/C=C/C(C)=C/C=C/C(C)=C/C(=O)Nc2ccc(O)cc2)C(C)(C)CCC1 [Retinoic acid p-hydroxyanilide]
Raw Signal [1]: 55637 | Z-score [2]: 0.09545

Cc1nc2ccccn2c(=O)c1CCN1CCC(C(=O)c2ccc(F)cc2)CC1 [Pirenperone]
Raw Signal [1]: 53743 | Z-score [3]: -0.4431

COc1ccc(CCNC[C@H](O)c2ccc(O)cc2)cc1OC [R(-)-Denopamine]
Raw Signal [4]: 58220 | Z-score [5]: 0.4267

NCCCS(=O)(=O)O.[Na] [3-Amino-1-propanesulfonic acid sodium]
Raw Signal [6]: 52858 | Z-score [7]: -0.8903

N[C@H](C(=O)O)c1cc(O)cc(O)c1 [(S)-3,5-Dihydroxyphenylglycine]
Raw Signal [6]: 63204 | Z-score [8]: 1.632

C[C@H]1C[C@H]2[C@@H]3CCC4=CC(=O)C=C[C@]4(C)[C@@]3(F)[C@@H](O)C[C@]2(C)[C@@]1(O)C(=O)CO [Betamethasone]
Raw Signal [1]: 58863 | Z-score [2]: 0.1673

CC(=O)N[C@@H](Cc1c[nH]c2ccccc12)C(=O)OCc1cc(C(F)(F)F)cc(C(F)(F)F)c1 [L-732,138]
Raw Signal [6]: 53722 | Z-score [7]: -0.7382

NS(=O)(=O)c1cc2c(cc1Cl)NCNS2(=O)=O [Hydrochlorothiazide]
Raw Signal [1]: 56632 | Z-score [2]: 0.2975

COc1[nH]c2ccc(F)cc2c1C(=O)OCC1CCN(CCNS(C)(=O)=O)CC1.NS(=O)(=O)O [GR 125487 sulfamate salt]
Raw Signal [6]: 51618 | Z-score [7]: -0.7208

CCn1cc(C(=O)O)c(=O)c2ccc(Cc3ccccc3)nc21 [Amfonelic acid]
Z-score [3]: -0.107

COc1ccc(CCN(C)CCCC(C#N)(c2ccc(OC)c(OC)c2)C(C)C)cc1OC.Cl (racemic) [(±)-Verapamil hydrochloride]
Raw Signal [6]: 63315 | Z-score [8]: 1.417

O=C(O)/C=C\C(=O)O.c1cnc(N2CCN(Cc3ccc4c(c3)OCO4)CC2)nc1 [Piribedil maleate]
Raw Signal [4]: 62540 | Z-score [5]: 1.266

LY-310,762 hydrochloride
Raw Signal [1]: 55045 | Z-score [2]: 0.1095

COC(=O)[C@H](NC(=O)c1cc(-c2ccccc2)nc2ccccc12)c1ccccc1 [SB 218795]
Raw Signal [4]: 57840 | Z-score [5]: 0.5429

Cl.NOCC(=O)O.NOCC(=O)O
Raw Signal [6]: 66377 | Z-score [8]: 1.491

CC(C)CN(C)c1nc(N)c(C(=O)N=C(N)N)nc1Cl [5-(N-Methyl-N-isobutyl)amiloride]
Raw Signal [1]: 57481 | Z-score [2]: -0.0761

CC(C)NCC(O)COc1cccc2ccccc12.Cl (racemic) [(±)-Propranolol hydrochloride]
Raw Signal [1]: 53827 | Z-score [3]: -0.09519

Cl.O[Si](CCCN1CCCCC1)(c1ccc(F)cc1)C1CCCCC1 (stereo not shown)
Raw Signal [1]: 52920 | Z-score [3]: -0.4564

NC(N)=Nc1nc(CSCCC(N)=NS(N)(=O)=O)cs1 [Famotidine]
Raw Signal [1]: 53127 | Z-score [3]: -0.4143

NCC(O)(CS(=O)(=O)O)c1ccc(Cl)cc1 (stereo not shown) [2-Hydroxysaclofen]
Raw Signal [4]: 61124 | Z-score [5]: 0.5655

CCCCOC(=O)NS(=O)(=O)c1sc(CC(C)C)cc1-c1ccc(Cn2c(CC)nc3c(C)cc(C)nc32)cc1 [L-162,313]
Raw Signal [1]: 54291 | Z-score [2]: -0.01722

CS(=O)(=O)O.Cc1c(C(=O)c2cccc3ccccc23)c2cccc3c2n1[C@H](CN1CCOCC1)CO3 [(R)-(+)-WIN 55,212-2 mesylate]
Raw Signal [4]: 62593 | Z-score [5]: 1.276

N[C@H](C(=O)O)c1cc(O)no1 (racemic) [(±)-Ibotenic acid]
Raw Signal [4]: 57640 | Z-score [5]: 0.5455

Cc1cc(O)c2c(c1)C(=O)c1cc(O)cc(O)c1C2=O [Emodin]
Raw Signal [4]: 61234 | Z-score [5]: 1.232

O=C[C@H](Cl)[C@@H](O)[C@H](O)[C@H](O)CO [2-Chloro-2-deoxy-D-glucose]
Raw Signal [4]: 57775 | Z-score [5]: 0.5297

CCCn1cnc2c1c(=O)n(CCCCC(C)=O)c(=O)n2C [Propentofylline]
Raw Signal [1]: 54119 | Z-score [3]: -0.3701

CC(=O)N1CCN(c2ccc(OCC3COC(Cn4ccnc4)(c4ccc(Cl)cc4Cl)O3)cc2)CC1 (stereo not shown) [Ketoconazole]
Raw Signal [6]: 49591 | Z-score [7]: -0.8069

CCc1ccccc1OC[C@@H](O)CN[C@H]1CCCc2ccccc21.O=C(O)C(=O)O [SR 59230A oxalate]
Raw Signal [1]: 55204 | Z-score [3]: -0.1593

CC(=O)[C@H]1CC[C@H]2[C@@H]3CCC4=CC(=O)CC[C@]4(C)[C@H]3CC[C@]12C [Progesterone]
Raw Signal [1]: 53663 | Z-score [3]: -0.1227

NC1CCN(O)C1=O (racemic) [(±)-HA-966]
Raw Signal [1]: 57782 | Z-score [2]: -0.02309

CN1C2CCC1CC(OC(c1ccccc1)c1ccc(Cl)cc1)C2.Cl (stereo not shown)
Raw Signal [6]: 50933 | Z-score [7]: -0.8599

COC[C@H]1OC(=O)c2coc3c2[C@@]1(C)C1=C(C3=O)[C@@H]2CCC(=O)[C@@]2(C)C[C@H]1OC(C)=O [Wortmannin from Penicillium funiculosum]
Raw Signal [6]: 53582 | Z-score [7]: -0.4744

Oc1cc(-c2ccccc2)nc2nc(Cl)ccc12
Raw Signal [1]: 57826 | Z-score [2]: -0.01534

NC(N)=NCCCCN=C(N)N [Arcaine sulfate]
Raw Signal [1]: 57202 | Z-score [3]: -0.1252

Cn1c(=O)c2[nH]cnc2n(C)c1=O.Cn1c(=O)c2[nH]cnc2n(C)c1=O.NCCN [Aminophylline ethylenediamine]
Raw Signal [1]: 57914 | Z-score [2]: 0.0001585

NCC(=O)NCCC(c1ccccc1)c1ccccc1 [N-(3,3-Diphenylpropyl)glycinamide]
Raw Signal [6]: 66051 | Z-score [8]: 2.21

Br.CCCN(CCC)C1CCc2ccc(O)cc2C1 (racemic) [(±)-7-Hydroxy-DPAT hydrobromide]
Raw Signal [1]: 55055 | Z-score [2]: -0.02275

CCN(CC)CCOC(=O)c1cc(Cl)c(N)cc1OC.Cl [SDZ-205,557 hydrochloride]
Raw Signal [1]: 56215 | Z-score [2]: 0.03715

Nc1nc(N)c2nc(CNc3ccc(C(=O)N[C@@H](CCC(=O)O)C(=O)O)cc3)cnc2n1 [Aminopterin]
Raw Signal [1]: 55514 | Z-score [3]: -0.4225

COC(=O)[C@@H](N)Cc1ccc(O)c(O)c1.Cl
Raw Signal [6]: 38457 | Z-score [7]: -3.394

CSC(=N)N.CSC(=N)N.O=S(=O)(O)O [S-Methylisothiourea hemisulfate]
Raw Signal [1]: 51759 | Z-score [3]: -0.4427

Br.Cc1cccc(C2CN(C)CCc3c2cc(O)c(O)c3Cl)c1 (stereo not shown) [SKF 83959 hydrobromide]
Raw Signal [6]: 52693 | Z-score [7]: -0.6471

CC[N+](C)(C)Cc1ccccc1Br [Bretylium tosylate]
Raw Signal [1]: 56921 | Z-score [3]: -0.1747

CN1[C@@H]2CC[C@H]1C[C@@H](OC(=O)C(CO)c1ccccc1)C2 (stereo partly shown) [Atropine sulfate]
Raw Signal [1]: 57358 | Z-score [3]: -0.09777

CC(CCc1ccccc1)NC(C)C(O)c1ccc(O)cc1 (stereo not shown) [Nylidrin hydrochloride]
Raw Signal [1]: 56232 | Z-score [2]: 0.3089

Cl.NCCS [Cysteamine hydrochloride]
Raw Signal [6]: 49886 | Z-score [7]: -0.7574

N[C@@H](Cc1c[nH]c2ccccc12)C(=O)O [L-Tryptophan]
Raw Signal [4]: 60593 | Z-score [5]: 0.8877

COc1cc(-c2ccc(=O)[nH]n2)ccc1OC(F)F [Zardaverine]
Raw Signal [1]: 57604 | Z-score [2]: 0.307

NC(CP(=O)(O)O)C(=O)O (racemic) [(±)-2-Amino-3-phosphonopropionic acid]
Raw Signal [6]: 53469 | Z-score [7]: -0.7827

C=CCN1CC[C@@]2(C)c3cc(O)ccc3C[C@@H]1[C@@H]2C.Cl (racemic) [(±)-N-Allylnormetazocine hydrochloride]
Raw Signal [6]: 52910 | Z-score [7]: -0.8812

Oc1c2ccccc2c2c3c(cccc13)N=N2 [SP600125]
Raw Signal [4]: 57057 | Z-score [5]: 0.3838

NCCc1c[nH]c2ccc(C(N)=O)cc12.O=C(O)/C=C\C(=O)O [5-Carboxamidotryptamine maleate]
Raw Signal [6]: 52599 | Z-score [7]: -0.5215

Cn1c(=O)c2c(ncn2C)n(C)c1=O [Caffeine]
Raw Signal [1]: 57928 | Z-score [2]: 0.002624

COc1ccc(NC(=O)c2ccc(-c3ccc(-c4noc(C)n4)cc3C)cc2)cc1N1CCN(C)CC1.Cl [GR 127935 hydrochloride]
Raw Signal [6]: 51529 | Z-score [7]: -0.4813

O=C(NCCNCC(O)COc1ccc(O)cc1)N1CCOCC1 (stereo not shown) [Xamoterol hemifumarate]
Raw Signal [4]: 60033 | Z-score [5]: 0.7789

Br.Oc1ccc(C2CNCc3sccc32)cc1O (stereo not shown) [SKF 89626]
Raw Signal [1]: 56262 | Z-score [2]: 0.04628

C[C@@H]1O[C@@H](O[C@H]2C[C@@H](O)[C@]3(CO)[C@H]4[C@H](O)C[C@]5(C)[C@@H]([C@@H]6COC(=O)C6)CC[C@]5(O)[C@@H]4CC[C@]3(O)C2)[C@H](O)[C@H](O)[C@H]1O [Dihydroouabain]
Raw Signal [6]: 48437 | Z-score [7]: -1.3668

CN(C)C(=O)N=NC(=O)N(C)C [N,N,N ,N -Tetramethylazodicarboxamide]
Raw Signal [4]: 57249 | Z-score [5]: 0.4228

O=S(=O)(O)C1CCNCC1 [Piperidine-4-sulphonic acid]
Raw Signal [1]: 54931 | Z-score [3]: -0.2123

COC1=C(OC)C(=O)c2ccccc2C1=O [2,3-Dimethoxy-1,4-naphthoquinone]
Raw Signal [4]: 57485 | Z-score [5]: 0.4708
